The test system of data set [1] is SK-N-BE cells. Put plainly: MTT assay, proliferation of SK-N-BE cells in the presence of EGF. The note with it: 10 ng/ml EGF plus 5 μM inhibitor, vs EGF-only control, T-test p<0.01. It counts as cell-based. Here is the method: SK-N-BE cells were cultured in the presence of 10 ng/ml EGF (control, which corresponds to “mock” in FIG. 26), in the presence of 10 ng/ml EGF and 5 μM of EGFR inhibitor AG1478, as well as in the presence of 10 ng/ml EGF and 5 μM of Ras inhibitor FTI277, and the cell proliferation was quantified by the MTT assay over time. FIG. 26 is a graph showing the proliferation of cells.
For orientation: Formazan colour is commonly taken as a measure of viable cells.

Data set [2] concerns MYCN expression. Put plainly: Immunoblot of EGF-induced MYCN expression in SK-N-BE cells with pathway inhibitors. It counts as cell-based. The note with it: six hours, 10 ng/ml EGF, inhibitor concentrations shown in FIG. 27. Here is the method:
SK-N-BE cells were cultured for six hours in the presence of 10 ng/ml EGF and in the presence of an EGFR inhibitor AG1478, a Ras inhibitor FTI277, an ERK1/2 inhibitor U0126, a PI3Kinase inhibitor LY294002, a INK inhibitor SP600125 or a p38MAPK inhibitor SB203580 in each concentration shown in FIG. 27. Next, respective cells were collected, and the expression of MYCN was analyzed by an immunoblot method using an anti-MYCN antibody and an anti-actin antibody. FIG. 27 is a photograph showing a result of an immunoblot.
For orientation: Immunoblotting shows a protein as a band on a membrane.

The next data set has as its system MYCN protein expression. Kind of data set: Immunoblot of MYCN protein induced by NLRR1 expression in SK-N-BE cells. It counts as cell-based. The settings on record: NLRR1 plasmid 1000 ng/ml, 12 hours, 1 μM AG1478 or 2 μM U0126. Here is the method:
An expression plasmid of NLRR1 tagged with a myc tag was introduced into SK-N-BE cells at the concentration of 1000 ng/ml. The cells were cultured for 12 hours in the presence of 1 μM of EGFR inhibitor AG1478 or 2 μM of ERK1/2 inhibitor U0126, and then the cells were collected and subjected to an immunoblot method using an anti-myc antibody, an anti-MYCN antibody and an anti-actin antibody. FIG. 34 is a photograph showing a result of an immunoblot.

For data set [3], the system named is SK-N-BE cells forced to express NLRR1. The note with it: SK-N-BE cells forced to express NLRR1, presence vs absence of U0126, over time. Here is the method: SK-N-BE cells that were forced to express NLRR1 were cultured in the presence and absence of ERK1/2 (ERK1 and ERK2) inhibitor, U0126. Furthermore, as a control, SK-N-BE cells into which a plasmid encoding NLRR1 was not introduced were cultured in the absence of U0126. The proliferation of these cells was quantified by an MTT assay over time. FIG. 23 is a graph showing a proliferation of cells. In the drawing, A denotes the proliferation of SK-N-BE cells forced to express NLRR1; B denotes the proliferation of SK-N-BE cells forced to express NLRR1 in the presence of U0126; and C denotes the proliferation of control cells.

Data set [4] concerns phosphorylation of EGFR and ERK. Kind of data set: Western blotting of EGFR and ERK phosphorylation in MCF-7 cells forced to express NLRR1. The note with it: MCF-7 cells forced to express NLRR1, 10 mM cyclodextrin 30 minutes 37° C., then EGF three minutes. The data set is classed as cell-based. The procedure:
The effect of NLRR1 on EGF signal transduction in cells treated with cyclodextrin (methyl-β-cyclodextrin, mβCD) that inhibits lipid raft was examined. FIG. 39 is a photograph showing a result of an immunoblot. […] The cells were washed with the medium, and cultured for three minutes in a medium containing EGF with different concentrations. Then, the phosphorylation of EGFR and ERK was analyzed by Western blotting. With the expression of NLRR1, the enhancement of phosphorylation of EGFR and ERK by EGF was detected. […] From the result, it has been clarified that the enhancement of an EGF signal by NLRR1 needs the structure of lipid raft. Thus, it is thought that treatment of cancer using the combination of an antibody inhibiting NLRR1 and an inhibitor of lipid raft is effective.

The test system of data set [5] is SK-N-AS cell line continuously expressing NLRR1. Kind of data set: Flow cytometry of sub-G1 cells (apoptosis) under serum-free conditions. The data set is classed as cell-based. The note with it: SK-N-AS line continuously expressing NLRR1, serum-free 36 hours, PI staining. From the text:
It is known that in the SK-N-AS neuroblastoma cell line, cell death is induced when serum is removed, and that the number of sub-G1 cells is increased from the flow cytometry analysis. SK-N-AS cells into which an empty vector plasmid was introduced (corresponding to “mock” on the left in FIG. 17), a cell line continuously expressing NLRR1 obtained by introducing a plasmid encoding NLRR1 into SK-N-AS cells (corresponding to “+NLRR1” in the middle of FIG. 17), and cells obtained by introducing siRNA against NLRR1 into this cell line continuously expressing NLRR1 (corresponding to “+siRNA+NLRR1” on the right of FIG. 17) were PI stained before and after the cells were cultured under the serum-free conditions for 36 hours, and analyzed by flow cytometry. The rate of the sub-G1 cells was evaluated as a rate of apoptosis. […] FIG. 18 is a graph showing the proportion of the number of sub-G1 cells to the total number of cells before and after culturing under the serum free conditions of respective cells based on the results of FIG. 17, in which the unit of the ordinate axis is %.
(A flow cytometer gives signals particle by particle.)

Another data set deals with NLRR1. Kind of data set: Immunoblot of NLRR1 expression after siRNA introduction. The data set is classed as cell-based. The note with it: SK-N-BE cells, anti-NLRR1 rabbit polyclonal antibody. Here is the method: (§1) To SK-N-BE cells derived from neuroblastoma, siRNA against NLRR1 was introduced so as to suppress the expression of NLRR1. As the siRNA, RNA fragment of the base sequences shown SEQ ID NOs: 3 and 4 were annealed and used.
(§2) After siRNA was introduced, the cells were cultured, and the cell proliferation was quantified by the MTT assay over time. As a control, cells into which Silencer (registered trademark) Negative Control #1 siRNA (Ambion) was introduced were used. FIG. 11 is a graph showing the proliferation of cells. […] FIG. 12 is a photograph of an immunoblot in which the expression of NLRR1 in the cells into which siRNA against NLRR1 was introduced and the control cells were detected by using an anti-NLRR1 rabbit polyclonal antibody. The anti-NLRR1 rabbit polyclonal antibody was prepared by immunizing a rabbit with a synthetic peptide corresponding to 693-712 residues of an amino acid sequence of NLRR1 (SEQ ID NO: 2) as an antigen. The result when an anti-actin antibody was used as the loading control is also shown.

For data set [6], the system named is SK-N-BE cells. Kind of data set: MTT assay, proliferation of SK-N-BE cells after siRNA introduction. The data set is classed as cell-based. The note with it: vs negative control siRNA, day 4 and day 5 p<0.01. The procedure: as §1, §2
The test system of another data set is SHEP21N cells. Kind of data set: MTT assay, proliferation of SHEP21N cells forced to express MYCN. The data set is classed as cell-based. The note with it: absence of tetracycline (expression of MYCN increased). From the text: To SHEP21N cells that were forced to express MYCN in the absence of tetracycline, siRNA against NLRR1 was introduced, and the cell proliferation was quantified by the MTT assay over time. FIG. 15 is a graph showing the proliferation of cells. In the absence of tetracycline (expression of MYCN was increased), the proliferation of cells was promoted as compared with the case in the presence of tetracycline (expression of MYCN was suppressed). When Silencer (registered trademark) Negative Control #1 siRNA was introduced in the absence of tetracycline (expression of MYCN was increased) as a control, the proliferation rate of cells was not changed.

For data set [7], the system named is SK-N-BE cells, NLF cells, SH-SY5Y cells, SMS-SAN cells. Put plainly: MTT assay, EGF-induced proliferation of neuroblastoma-derived cells. The note with it: SK-N-BE cells with siRNA, 10 ng/ml EGF. It counts as cell-based. Here is the method: SK-N-BE cells, NLF cells, SH-SY5Y cells, SMS-SAN cells, which are cell lines derived from neuroblastoma, and SK-N-BE cells into which siRNA against NLRR1 was introduced were cultured in the presence and absence of 10 ng/ml EGF, and the cell proliferation was quantified by the MTT assay over time. FIG. 28 is a graph showing the cell proliferation, showing the change fold ratio of the proliferation of cells in the presence of EGF to the proliferation of cells in the absence of EGF.

The test system of data set [8] is MYCN expression. Put plainly: Immunoblot of EGF-induced MYCN expression in SK-N-BE cells after siRNA introduction. It counts as cell-based. The note with it: 10 hours, 10 ng/ml EGF. Here is the method:
SK-N-BE cells, SK-N-BE cells into which siRNA against NLRR1 was introduced, and SK-N-BE cells into which Silencer (registered trademark) Negative Control #1 siRNA was introduced were cultured for 10 hours in the presence of 10 ng/ml EGF, and the cells were collected. Next, these cells were subjected to an immunoblot method using an anti-MYCN antibody, an anti-NLRR1 rabbit polyclonal antibody and an anti-actin antibody, and expression of MYCN and NLRR1 in the protein level was detected. FIG. 16 is a photograph showing a result of immunoblot. The result of the cells into which control siRNA was introduced corresponds to “mock” in FIG. 16.

`COc1cc2ncnc(Nc3cccc(Cl)c3)c2cc1OC` [AG1478]: in the data set on SK-N-BE cells [1], the “proliferation of cells (MTT assay)” value is listed as “the proliferation of cells is suppressed”. Further, in the data set with MYCN expression [2], the “expression increase of MYCN by the induction of EGF (immunoblot)” value (from here on “expression increase of MYCN”) is recorded as “expression increase of MYCN by the induction of EGF was inhibited”. Besides, the “expression induction of MYCN protein by the expression of NLRR1 (immunoblot)” value in the data set on MYCN protein expression is recorded as “expression induction of MYCN protein by the expression of NLRR1 is suppressed”.
Regarding `COC(=O)[C@H](CCSC)NC(=O)c1ccc(NC[C@@H](N)CS)cc1-c1ccccc1` [FTI277], in the data set on SK-N-BE cells [1], the “proliferation of cells (MTT assay)” value is “the proliferation of cells is suppressed”. Further, the “expression increase of MYCN” value with MYCN expression [2] is reported as “expression increase of MYCN by the induction of EGF was inhibited”.
For the compound `C[S+]([O-])c1ccc(-c2nc(-c3ccncc3)c(-c3ccc(F)cc3)[nH]2)cc1` (stereo not shown) [SB203580], the “expression increase of MYCN” value with MYCN expression [2] is “expression increase of MYCN by the induction of EGF was not inhibited”.
Consider `N#CC(=C(/N)Sc1ccccc1N)/C(C#N)=C(\N)Sc1ccccc1N` [U0126], for which the “proliferation of cells (MTT assay)” value in data set [3] was “the cell proliferation was suppressed”. For the same compound, in the data set on MYCN expression [2], the “expression increase of MYCN” value is listed as “expression increase of MYCN by the induction of EGF was inhibited”. Also, the “expression induction of MYCN protein by the expression of NLRR1 (immunoblot)” value with MYCN protein expression is given as “expression induction of MYCN protein by the expression of NLRR1 is suppressed”.
With methyl-β-cyclodextrin [mβCD], the “enhancement of phosphorylation of EGFR and ERK by NLRR1” value in [4] was “the enhancement of phosphorylation of EGFR and ERK by NLRR1 was not observed”.
With “siRNA against NLRR1: annealed RNA fragments of SEQ ID NOs: 3 and 4, suppresses the expression of NLRR1 (chain 1 UCUUGGUUGAGCUGUGUAGUU; chain 2 AACUACACAGCUCAACCAAGA; RNA, backbone not given here; listed as Homo sapiens)”, the “apoptosis (proportion of sub-G1 cells)” value in [5] is reported as “the increase in the apoptosis was observed”. Besides, in the data set with NLRR1, the “expression of NLRR1 (immunoblot)” value is “the expression of NLRR1 was suppressed”. Further, the “proliferation of cells (MTT assay)” value in the data set with SK-N-BE cells [6] is reported as “the proliferation of cells is suppressed”. Moreover, the “proliferation of cells due to increased MYCN expression (MTT assay)” value in the data set with SHEP21N cells is on record as “the proliferation of cells due to the increase in the MYCN expression did not occur”. The “EGF-induced cell proliferation (MTT assay, fold ratio with vs without EGF)” value in data set [7] is “EGF-induced cell proliferation was remarkably suppressed”. Also, the “induction of the expression of MYCN by EGF treatment (immunoblot)” value in the data set with MYCN expression [8] is “the induction of the expression of MYCN by EGF treatment was suppressed”.

The values are drawn from patent US20110124006A1, “METHOD FOR SCREENING OF THERAPEUTIC AGENT FOR CANCER” (Hismitsu Pharmaceutical Co., Inc., priority 2008, published 2011).
